{
  "source": "patent US20210186972A1",
  "about": "“FORMULATIONS AND METHODS FOR THE PREVENTION AND TREATMENT OF TUMOR METASTASIS AND TUMORIGENESIS” (THE UNITED STATES OF AMERICA, AS REPRESENTED BY THE …, priority 2018, published 2021)",
  "key": {"PC3M-GFP-PTB cells": {"test_system": "PC3M-GFP-PTB cells", "experiment": "PNC prevalence / PNC disassembly in PC3M-GFP-PTB cells", "type": "cell-based, human", "text": "FIG. 1 is a graph showing the concentration-response curve against PNC prevalence in PC3M (a metastatic prostate cancer cell line)-GFP (green fluorescent protein)-PTB (polypyrimidine tract-binding protein) cells (squares, PC3M, has a PNC prevalence of 75-85% in the absence of treatment) and cytotoxicity as measured by cellular ATP (CELLTITER GLO™) (circles). Representative PTB-GFP images for cells at the indicated concentrations (arrowheads indicate PNCs) (scale bar=5 μm) are shown in the three panels above the graph. The relative signal (%) is along the y-axis and Metarrestin [log M] is along the x-axis.\nA metastatic prostate cancer cell line, PC3M, was developed in order to screen small molecules that effectively disassemble PNCs (see Pettaway, et al., “Selection of highly metastatic variants of different human prostatic carcinomas using orthotopic implantation in nude mice,” Clin. Cancer Res., (2): 1627-36 (1996), incorporated herein in its entirety). PC3M has a […] stably express GFP-PTB (polypyrimidine track binding protein) (FIG. 1, top panels), an essential component of PNCs (see Huang, et al., “The perinucleolar compartment and transcription,” Journal of Cell Biology, (143): 35-47 (1998), incorporated herein in its entirety). Compounds able to reduce PNC prevalence by 50% were filtered in secondary assays to eliminate those that induced apoptosis, DNA damage, generic cytotoxicity, or cell-cycle blockage (see Norton, et al., “Automated high-content screening for compounds that disassemble the perinucleolar compartment,” J Biomol Screen, (14): 1045-53 (2009) and Frankowski, et al., “Discovery and Development of Small Molecules That Reduce PNC Prevalence, in Probe Reports from the NIH Molecular Libraries Program, Bethesda (Md.).(2010), incorporated herein in their entirety). The remaining hits were evaluated for invasion inhibition through MATRIGEL gelatinous protein mixture and anchorage-independent growth inhibition using soft agar assays."}, "PANC1 cells": {"test_system": "PANC1 cells", "experiment": "Cell growth, PANC1", "type": "cell-based, human", "conditions": "0.6 μM, after 24 hours of treatment", "text": "FIG. 63 is a graph showing the drug response of PANC1 cells following metarrestin treatment. […] Mean cell viability values are plotted with standard error of the mean (SEM) from at least 2 independent experiments done in triplicate."}, "NSG PANC1 mice": {"test_system": "NSG PANC1 mice", "experiment": "Survival in NSG PANC1 pancreatic cancer metastasis model, drug-infused chow", "type": "in vivo", "text": "FIG. 13 is a graph showing the survival rate of mice following metarrestin or vehicle treatment. This graph illustrates that metarrestin treatment extends survival in the NSG PANC1 pancreatic cancer metastasis model. […] The survival rate in the y-axis and the number of days after treatment is on the x-axis. Metarrestin treatment is the solid grey line at 100% survival and the descending black line is the vehicle (*** p<0.001).\nFIG. 14 is a graph showing the survival rate of mice following metarrestin or vehicle treatment. This graph illustrates that metarrestin treatment extends survival in the NSG PANC1 pancreatic cancer metastasis model. Metarrestin treatment was provided through drug-infused chow (70 ppm designed to administer 10 mg/kg daily) after mice developed macrometastasis, including visible liver surface deposits. Metarrestin treatment extended the survival time of the mice compared to vehicle treated (NIH 31 Haslan diet). The survival rate in the y-axis and the number of days after treatment is on the x-axis. Metarrestin treatment is the solid grey line and the black line is the vehicle ([…]).\nTo evaluate whether metarrestin treatment can provide a survival advantage by preventing metastatic progression, the above experiment was repeated, but mice were followed until death or when animals reached study endpoint. NSG mice were injected with 60,000 3D PANC1 cells (details of assay below), and daily treatment with metarrestin-infused chow (10 mg/kg; 70 ppm, micronized particles added to NIH 31 Haslan rodent diet) began 6 weeks after tumor cell implantation, when metastasis was limited to micrometastasis by histopathological examination (FIG. 63). Animals in the control group receiving regular chow started to die 25 days after the start of treatment, whereas the metarrestin treatment group had no mortality more than 90 days after the start of treatment (FIG. 13). […]\nPancreatic cancer model: 60,000 luciferase-tagged PANC1 spheres were injected into the pancreas of Nod/IL2gamma (null) mice (obtained from NCI Mouse Repository, Frederick, Md.; on ACUC-approved animal protocol SB-211-2). […] Organs were then individually dissected, subjected to quantitative xenogene imaging, and fixed with 4% non-buffered formaldehyde. Impact of metastatic burden was calculated and graphed as liver and lung/primary tumor ratios based on a five-minute photon count for the liver normalized to liver weight (g), which was then compared to the average photon count per weight (g) of the primary pancreatic tumor of the same animal. […] Liver metastasis/mm^2 was calculated as the sum of the […] of the individual metastases. Tumor volume (mm^3) was calculated as (L×W2), where L=length (mm) and W=width (mm). Animal survival was measured from the first day of treatment until death. […]"}, "Pol II transcription": {"test_system": "Pol II transcription", "experiment": "Pol II transcription status: CUGBP and SC35 immunolabeling", "type": "cell-based", "text": "To further determine whether metarrestin interferes with Pol II transcription in general, CUGBP was immunolabeled. The steady state nuclear distribution of CUGBP, a multifunctional hnRNP protein highly enriched in the PNC, is dependent upon Pol II transcription."}, "eEF1A": {"test_system": "eEF1A", "experiment": "Cellular thermal shift assay (CETSA)", "type": "binding", "conditions": "PC3M cell lysate", "text": "DMSO is the top panel and metarrestin is the bottom panel."}, "[1]": {"conditions": "infused chow 10 mg/kg (70 ppm) after macrometastasis visible"}},
  "note": "Like-named read-outs stand apart in the source and are kept apart here.",
  "data": [
    {"smiles": "N=c1c2c(-c3ccccc3)c(-c3ccccc3)n(Cc3ccccc3)c2ncn1[C@H]1CC[C@H](O)CC1", "note": "[metarrestin]", "values": [
      {"measurement": "PNC disassembly and nucleolar distortion", "setting": "PC3M-GFP-PTB cells; 1 μM", "result": "~100", "unit": "%"},
      {"measurement": "IC90", "setting": "PC3M-GFP-PTB cells; Homo sapiens, FIG. 1", "result": 750, "unit": "nM"},
      {"measurement": "IC50", "setting": "PC3M-GFP-PTB cells; Homo sapiens, P3CM cells, read-out: PNC disassembling IC50", "result": 390, "unit": "nM"},
      {"measurement": "IC50", "setting": "PC3M-GFP-PTB cells; Homo sapiens, PC3M-GFP-PTB cells, read-out: IC50 for disruption of PNCs", "result": 390, "unit": "nM"},
      {"measurement": "IC100", "setting": "PC3M-GFP-PTB cells; PC3M cells, 24 hours", "result": 1, "unit": "µM"},
      {"measurement": "PANC1 cell growth", "setting": "PANC1 cells", "result": "did not affect PC3M or PANC1 cell growth"},
      {"measurement": "Extension of median overall survival over control group", "setting": "NSG PANC1 mice; [1]", "result": "more than two-fold"},
      {"measurement": "Organ replacement with tumors at necropsy (liver, lungs)", "setting": "NSG PANC1 mice; [1]", "result": "preserved organs"},
      {"measurement": "Primary tumor growth in the pancreas", "setting": "NSG PANC1 mice; [1]", "result": "no significant difference"},
      {"measurement": "Time after start of treatment without mortality", "setting": "NSG PANC1 mice; infused chow 10 mg/kg (70 ppm) from 6 weeks after implantation (micrometastasis)", "result": "more than 90 days"},
      {"measurement": "Localization of CUGBP", "setting": "Pol II transcription", "result": "without causing cytoplasmic relocation of CUGBP"},
      {"measurement": "SC35 distribution pattern", "setting": "Pol II transcription", "result": "not significantly changed"},
      {"measurement": "Aggregation temperature of eEF1A", "setting": "eEF1A", "result": "increase in the aggregation temperature of eEF1A"}
    ]}
  ]
}
